What was measured:
Assay in all cases: relative viability (nuclei count vs DMSO), 5 days (fraction); higher = more cells survive
NCI-H1623 = test system: NCI-H1623
How it was run: (§1)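 Cells from lung cancer lines were seeded into 1536-well plates and, one day later, dosed by pin tool. Treatments were either a single drug or a fixed dose of an anchor drug with five library-drug doses (not always all listed) in √10 steps. After 5 days, nuclei were stained in a one-step fixation (final 0.05% Triton X-100, 1% formaldehyde, 1 ug/ml Hoechst) and counted on 4× images, and relative viability is the treated-to-vehicle nuclei ratio, as the median of duplicate plates.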

HCC-366 = test system: HCC-366
How it was run: as §1

A549 = test system: A549
How it was run: as §1

NCI-H1437 = test system: NCI-H1437
How it was run: as §1

LOU-NH91 = test system: LOU-NH91
How it was run: as §1

EBC-1 = test system: EBC-1
How it was run: as §1

NCI-H3122 = test system: NCI-H3122
How it was run: as §1

NCI-H1703 = test system: NCI-H1703
How it was run: as §1

IA-LM = test system: IA-LM
How it was run: as §1

NCI-H1299 = test system: NCI-H1299
How it was run: as §1

NCI-H2085 = test system: NCI-H2085
How it was run: as §1

Calu-6 = test system: Calu-6
How it was run: as §1

HCC-44 = test system: HCC-44
How it was run: as §1

For `O=c1cc(-c2cccc3c2Sc2ccccc2S3)oc(N2CCOCC2)c1` + COc1cc2c(Oc3ccc(NC(=O)C4(C(=O)Nc5ccc(F)cc5)CC4)cc3F)ccnc2cc1OCCCN1CCOCC1 [Foretinib] (partner 0.25 µM), the relative viability (NCI-H1623; first compound 0.08 µM) was 0.834, the relative viability (NCI-H1623; first compound 0.253 µM) was 0.865 and the relative viability (NCI-H1623; first compound 0.8 µM) was 0.765. For the same molecule, the relative viability (NCI-H1623; first compound 2.53 µM) was 0.866, the relative viability (NCI-H1623; first compound 8 µM) was 0.917 and the relative viability (HCC-366; first compound 0.08 µM) was 0.911. It also gave a relative viability (HCC-366; first compound 0.253 µM) of 0.89, a relative viability (HCC-366; first compound 0.8 µM) of 0.635 and a relative viability (HCC-366; first compound 2.53 µM) of 0.903. It also gave a relative viability (HCC-366; first compound 8 µM) of 1.03, a relative viability (A549; first compound 0.08 µM) of 1 and a relative viability (A549; first compound 0.253 µM) of 1.06. The relative viability (A549; first compound 0.8 µM) was 1.15, the relative viability (A549; first compound 2.53 µM) was 0.978 and the relative viability (A549; first compound 8 µM) was 1.03. It also gave a relative viability (NCI-H1437; first compound 0.08 µM) of 1.27, a relative viability (NCI-H1437; first compound 0.253 µM) of 1.41 and a relative viability (NCI-H1437; first compound 0.8 µM) of 1.32. It also gave a relative viability (NCI-H1437; first compound 2.53 µM) of 1.23, a relative viability (NCI-H1437; first compound 8 µM) of 1.33 and a relative viability (LOU-NH91; first compound 0.08 µM) of 0.976. The relative viability (LOU-NH91; first compound 0.253 µM) was 0.906, the relative viability (LOU-NH91; first compound 0.8 µM) was 0.833 and the relative viability (LOU-NH91; first compound 2.53 µM) was 0.838. For the same molecule, the relative viability (LOU-NH91; first compound 8 µM) was 0.967, the relative viability (EBC-1; first compound 0.08 µM) was 0.106 and the relative viability (EBC-1; first compound 0.253 µM) was 0.0935. For the same molecule, the relative viability (EBC-1; first compound 0.8 µM) was 0.104, the relative viability (EBC-1; first compound 2.53 µM) was 0.105 and the relative viability (EBC-1; first compound 8 µM) was 0.111. The relative viability (NCI-H3122; first compound 0.08 µM) was 0.789, the relative viability (NCI-H3122; first compound 0.253 µM) was 1.01 and the relative viability (NCI-H3122; first compound 0.8 µM) was 1.02. The relative viability (NCI-H3122; first compound 2.53 µM) was 0.986, the relative viability (NCI-H3122; first compound 8 µM) was 1.01 and the relative viability (NCI-H1703; first compound 0.08 µM) was 0.348. The relative viability (NCI-H1703; first compound 0.253 µM) was 0.421, the relative viability (NCI-H1703; first compound 0.8 µM) was 0.273 and the relative viability (NCI-H1703; first compound 2.53 µM) was 0.321. For the same molecule, the relative viability (NCI-H1703; first compound 8 µM) was 0.334, the relative viability (IA-LM; first compound 0.08 µM) was 1.45 and the relative viability (IA-LM; first compound 0.253 µM) was 1.33. For the same molecule, the relative viability (IA-LM; first compound 0.8 µM) was 1.32, the relative viability (IA-LM; first compound 2.53 µM) was 1.04 and the relative viability (IA-LM; first compound 8 µM) was 1.23. For the same molecule, the relative viability (NCI-H1299; first compound 0.08 µM) was 1.09, the relative viability (NCI-H1299; first compound 0.253 µM) was 1.13 and the relative viability (NCI-H1299; first compound 0.8 µM) was 1.15. It also gave a relative viability (NCI-H1299; first compound 2.53 µM) of 1.09, a relative viability (NCI-H1299; first compound 8 µM) of 1.1 and a relative viability (NCI-H2085; first compound 0.08 µM) of 0.907. The relative viability (NCI-H2085; first compound 0.253 µM) was 1.21, the relative viability (NCI-H2085; first compound 0.8 µM) was 0.975 and the relative viability (NCI-H2085; first compound 2.53 µM) was 0.771. For the same molecule, the relative viability (NCI-H2085; first compound 8 µM) was 0.845, the relative viability (Calu-6; first compound 0.08 µM) was 0.916 and the relative viability (Calu-6; first compound 0.253 µM) was 0.963. For the same molecule, the relative viability (Calu-6; first compound 0.8 µM) was 0.932, the relative viability (Calu-6; first compound 2.53 µM) was 0.867 and the relative viability (Calu-6; first compound 8 µM) was 0.799.
With `O=c1cc(N2CCOCC2)oc2c(-c3cccc4c3sc3ccccc34)cccc12` + N=C(N)NC(=N)NCCc1ccccc1 [Phenformin] (partner 250 µM) the relative viability (NCI-H1623; first compound 0.01 µM) was 0.565, the relative viability (NCI-H1623; first compound 0.03162 µM) was 0.619 and the relative viability (NCI-H1623; first compound 0.1 µM) was 0.324. It also gave a relative viability (NCI-H1623; first compound 0.3162 µM) of 0.585, a relative viability (NCI-H1623; first compound 1 µM) of 0.545 and a relative viability (HCC-366; first compound 0.01 µM) of 0.608. The relative viability (HCC-366; first compound 0.03162 µM) was 0.697, the relative viability (HCC-366; first compound 0.1 µM) was 0.661 and the relative viability (HCC-366; first compound 0.3162 µM) was 0.601. The relative viability (HCC-366; first compound 1 µM) was 0.668, the relative viability (A549; first compound 0.01 µM) was 0.201 and the relative viability (A549; first compound 0.03162 µM) was 0.143. It also gave a relative viability (A549; first compound 0.1 µM) of 0.0905, a relative viability (A549; first compound 0.3162 µM) of 0.167 and a relative viability (A549; first compound 1 µM) of 0.183. The relative viability (NCI-H1437; first compound 0.01 µM) was 0.32, the relative viability (NCI-H1437; first compound 0.03162 µM) was 0.323 and the relative viability (NCI-H1437; first compound 0.1 µM) was 0.298. It also gave a relative viability (NCI-H1437; first compound 0.3162 µM) of 0.338, a relative viability (NCI-H1437; first compound 1 µM) of 0.282 and a relative viability (LOU-NH91; first compound 0.01 µM) of 0.58. The relative viability (LOU-NH91; first compound 0.03162 µM) was 0.688, the relative viability (LOU-NH91; first compound 0.1 µM) was 0.689 and the relative viability (LOU-NH91; first compound 0.3162 µM) was 0.791. For the same molecule, the relative viability (LOU-NH91; first compound 1 µM) was 0.618, the relative viability (NCI-H3122; first compound 0.01 µM) was 0.347 and the relative viability (NCI-H3122; first compound 0.03162 µM) was 0.374. It also gave a relative viability (NCI-H3122; first compound 0.1 µM) of 0.38, a relative viability (NCI-H3122; first compound 0.3162 µM) of 0.36 and a relative viability (NCI-H3122; first compound 1 µM) of 0.396. The relative viability (HCC-44; first compound 0.01 µM) was 0.249, the relative viability (HCC-44; first compound 0.03162 µM) was 0.187 and the relative viability (HCC-44; first compound 0.1 µM) was 0.134. The relative viability (HCC-44; first compound 0.3162 µM) was 0.366, the relative viability (HCC-44; first compound 1 µM) was 0.139 and the relative viability (NCI-H2085; first compound 0.01 µM) was 0.713. It also gave a relative viability (NCI-H2085; first compound 0.03162 µM) of 0.708, a relative viability (NCI-H2085; first compound 0.1 µM) of 0.625 and a relative viability (NCI-H2085; first compound 0.3162 µM) of 0.745. It also gave a relative viability (NCI-H2085; first compound 1 µM) of 0.734.
Work on `CCN(CC)CCCCNc1ncc2cc(-c3cc(OC)cc(OC)c3)c(NC(=O)NC(C)(C)C)nc2n1` + N=C(N)NC(=N)NCCc1ccccc1 [Phenformin] (partner 250 µM) yielded a relative viability (NCI-H1623; first compound 0.01 µM) of 0.602, a relative viability (NCI-H1623; first compound 0.03162 µM) of 0.49 and a relative viability (NCI-H1623; first compound 0.1 µM) of 0.626. The relative viability (NCI-H1623; first compound 0.3162 µM) was 0.608, the relative viability (NCI-H1623; first compound 1 µM) was 0.577 and the relative viability (HCC-366; first compound 0.01 µM) was 0.627. It also gave a relative viability (HCC-366; first compound 0.03162 µM) of 0.666, a relative viability (HCC-366; first compound 0.1 µM) of 0.65 and a relative viability (HCC-366; first compound 0.3162 µM) of 0.622. For the same molecule, the relative viability (HCC-366; first compound 1 µM) was 0.581, the relative viability (A549; first compound 0.01 µM) was 0.198 and the relative viability (A549; first compound 0.03162 µM) was 0.19. The relative viability (A549; first compound 0.1 µM) was 1.04, the relative viability (A549; first compound 0.3162 µM) was 0.247 and the relative viability (A549; first compound 1 µM) was 0.12. The relative viability (NCI-H1437; first compound 0.01 µM) was 0.29, the relative viability (NCI-H1437; first compound 0.03162 µM) was 0.298 and the relative viability (NCI-H1437; first compound 0.1 µM) was 0.28. The relative viability (NCI-H1437; first compound 0.3162 µM) was 0.362, the relative viability (NCI-H1437; first compound 1 µM) was 0.257 and the relative viability (LOU-NH91; first compound 0.01 µM) was 0.572. It also gave a relative viability (LOU-NH91; first compound 0.03162 µM) of 0.683, a relative viability (LOU-NH91; first compound 0.1 µM) of 0.795 and a relative viability (LOU-NH91; first compound 0.3162 µM) of 0.797. The relative viability (LOU-NH91; first compound 1 µM) was 0.713, the relative viability (NCI-H3122; first compound 0.01 µM) was 0.39 and the relative viability (NCI-H3122; first compound 0.03162 µM) was 0.362. The relative viability (NCI-H3122; first compound 0.1 µM) was 0.633, the relative viability (NCI-H3122; first compound 0.3162 µM) was 0.367 and the relative viability (NCI-H3122; first compound 1 µM) was 0.321. For the same molecule, the relative viability (HCC-44; first compound 0.01 µM) was 0.189, the relative viability (HCC-44; first compound 0.03162 µM) was 0.195 and the relative viability (HCC-44; first compound 0.1 µM) was 0.237. It also gave a relative viability (HCC-44; first compound 0.3162 µM) of 0.234, a relative viability (HCC-44; first compound 1 µM) of 0.22 and a relative viability (NCI-H2085; first compound 0.01 µM) of 0.735. It also gave a relative viability (NCI-H2085; first compound 0.03162 µM) of 0.661, a relative viability (NCI-H2085; first compound 0.1 µM) of 0.76 and a relative viability (NCI-H2085; first compound 0.3162 µM) of 0.808. For the same molecule, the relative viability (NCI-H2085; first compound 1 µM) was 0.779.
